Measured values from US6511965B2, “Ether type lipid A 1-carboxylic acid analogs” (Sankyo Company, Limited, priority 1999, dated 2003).
Where two headings read alike, the source gives them in different places.

Columns and labels:
[1] = test system: TNF α production by U937 cells; assay: Test on macrophage activity inhibition (antagonist test): LPS antagonistic activity on TNFα production by U937 cells; assay type: cell-based; conditions: in the presence of 10 ng/ml of LPS, human monocytic U937 cells, 6 hours, TNFα by ELISA, concentration suppressing TNFα to 50% of standard production amount, read-out: IC50(nM), LPS antagonistic activities of the compounds on TNF α production by U937 cells
Experimental: Test on macrophage activity inhibition (antagonist test).
TNFα is produced in vitro using human monocytic cell strain U937. The production amount of TNFα is determined by ELISA KIT of Genzyme Corporation.
Evaluation is carried out in accordance with the method of Daniel-Issakani, et al. (Journal of Biological Chemistry, 264, 20240-20247 (1989)).
By 10 ng/ml of LPS (lipopolysaccharide), about 1 ng of TNFα is produced per 10^5 cells of U937 during 6 hours (designated as a standard production amount: 100%).
In the presence of 10 ng/ml of LPS, the concentration of each of the compounds obtained in the Examples at which the production amount of TNFα is suppressed to 50% of the standard production amount is determined and it is expressed as ED50%.

Row | Compound | IC50 ([1]; U-937) [nM] | melting point [°C] | IC50 [1] [nM]
1 | CCCCCCCCCCCCO[C@H](CCCCCCCCCCC)CCO[C@@H]1[C@@H](NC(C)=O)[C@H](OC[C@H]2O[C@H](C(=O)O)[C@H](NC(=O)C[C@H](O)CCCCCCCCCCC)[C@@H](OCC[C@H](O)CCCCCCCCCCC)[C@@H]2O)O[C@H](COC)[C@H]1OP(=O)(O)O [Example 5, 2,6-Anhydro-7-O-[2-acetylamino-2-deoxy-3-O-{(R)-3-dodecyloxytetradecyl}-6-O-methyl-4-O-phosphono-β-D-glucopyranosyl]-3-{(R)-hydroxytetradecanoylamino}-4-O-{(R)-3-hydroxytetradecyl}-3-deoxy-D-glycero-D-ido-heptonic Acid] | – | – | 6.4
2 | CCCCCCCCCCCCO[C@H](CCCCCCCCCCC)CCO[C@@H]1[C@@H](NC(C)=O)[C@H](OC[C@H]2O[C@H](C(=O)O)[C@H](NC(=O)C[C@H](O)CCCCCCCCCCC)[C@@H](OCC[C@H](O)CCCCCCCCCCC)[C@@H]2O)O[C@H](CO)[C@H]1OP(=O)(O)O [Example 4, 2,6-Anhydro-7-O-[2-acetylamino-2-deoxy-3-O-{(R)-3-dodecyloxytetradecyl}-4-O-phosphono-β-D-glucopyranosyl]-3-{(R)-3-hydroxytetradecanoylamino}-4-O-{(R)-3-hydroxytetradecyl}-3-deoxy-D-glycero-D-ido-heptonic Acid] | 11 | 179 to 181 | –
3 | CCCCCCCCCCCCO[C@H](CCCCCCCCCCC)CCO[C@@H]1[C@@H](NC(C)=O)[C@H](OC[C@H]2O[C@H](C(=O)O)[C@H](NC(=O)C[C@H](O)CCCCCCCCCCC)[C@@H](OCC[C@H](O)CCCCCCCCCCC)[C@@H]2O)O[C@H](CF)[C@H]1OP(=O)(O)O [Example 6] | – | – | 10
4 | CCCCCCCCCCCCCC(=O)O[C@H](CCCCCCCCCCC)CCO[C@@H]1[C@@H](NC(C)=O)[C@H](OC[C@H]2O[C@H](C(=O)O)[C@H](NC(=O)C[C@H](O)CCCCCCCCCCC)[C@@H](OCC[C@H](O)CCCCCCCCCCC)[C@@H]2O)O[C@H](COC)[C@H]1OP(=O)(O)O [Example 2, 2,6-Anhydro-7-O-[2-acetylamino-2-deoxy-6-O-methyl-4-O-phosphono-3-O-{(R)-3-tetradecanoyloxytetradecyl}-β-D-glucopyranosyl]-3-{(R)-3-hydroxytetradecanoylamino}-4-O-{(R)-3-hydroxytetradecyl}-3-deoxy-D-glycero-D-ido-heptonic Acid] | 0.61 | – | –

Second part, led by results:

Row | IC50 ([1]; U-937) [nM] | melting point [°C] | Compound | IC50 [1] [nM]
5 | 1.2 | – | CCCCCCCCCCCCCC(=O)O[C@H](CCCCCCCCCCC)CCO[C@@H]1[C@@H](NC(C)=O)[C@H](OC[C@H]2O[C@H](C(=O)O)[C@H](NC(=O)C[C@H](O)CCCCCCCCCCC)[C@@H](OCC[C@H](O)CCCCCCCCCCC)[C@@H]2O)O[C@H](CF)[C@H]1OP(=O)(O)O [Example 3, 2,6-Anhydro-7-O-[2-acetylamino-2,6-dideoxy-6-fluoro-4-O-phosphono-3-O-{(R)-3-tetradecanoyloxytetradecyl}-β-D-glucopyranosyl]-3-{(R)-3-hydroxytetradecanoylamino}-4-O-{(R)-3-hydroxytetradecyl}-3-deoxy-D-glycero-D-ido-heptonic Acid] | –
6 | 11 | – | CCCCCCCCCCCCCC(=O)O[C@H](CCCCCCCCCCC)CCO[C@H]1[C@H](OP(=O)(O)O)[C@@H](CO)OC(OC[C@H]2O[C@H](C(=O)O)[C@H](NC(=O)C[C@H](O)CCCCCCCCCCC)[C@@H](OCC[C@H](O)CCCCCCCCCCC)[C@@H]2O)[C@@H]1NC(C)=O (stereo partly drawn) [Example 1, 2,6-Anhydro-7-O-[2-acetylamino-2-deoxy-4-O-phosphono-3-O-{(R)-3-tetradecanoyloxytetradecyl}-D-glucopyranosyl]-3-{(R)-3-hydroxytetradecanoylamino}-4-O-{(R)-3-hydroxytetradecyl}-3-deoxy-D-glycero-D-ido-heptonic Acid] | –
